Active and inactive are the calls of the source.
What was measured:
BJ [1] = experiment: BJ-TERT-LT-ST fibroblast viability loss – cell-based, RAS-independent, luminescence, dose response (AID 1935); assay type: functional; conditions: Homo sapiens;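 further: BJ fibroblasts immortalized with TERT plus LT and ST oncogenes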
[2] = DRD fibroblast viability loss – cell-based, non-viral oncogenic, luminescence, dose response (AID 1934); assay type: functional; conditions: Homo sapiens
[3] = biological target: G-protein coupled receptor 55 (Homo sapiens, UniProt Q9Y2T6); experiment: inhibition of LPI-stimulated GPR55 beta-arrestin translocation – imaging, U2OS, beta-arrestin-GFP, LPI agonist, primary screen (AID 2013); assay type: functional;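 further: antagonist potency measured as reduced agonist-driven arrestin aggregation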
HeLa = experiment: Cytotoxicity counterscreen assay for transcriptional activators of heat shock protein 70 (Hsp70). [Related pubchem assays: 1203, 1252 ]; assay type: functional; conditions: Homo sapiens
[4] = alpha-synuclein stem-loop luciferase translation blockers – H4 neuroglioma cells, luminescence, confirmation (AID 1988); assay type: functional, cell-based
BJ [5] = experiment: cells; assay type: functional, cell-based; conditions: Homo sapiens
[6] = Luminescence Cell-Based Dose Response HTS to Identify Inhibitors of 5'UTR Stem-Loop Driven Prion Protein mRNA Translation in H4 Neuroglioblastoma Cells. [Related pubchem assays: 1827 (Project Summary), 1813 (Primary HTS)]; assay type: functional
[7] = luciferase reporter signal suppression in cells – H4 neuroglioma cells, luminescence, dose response (AID 1990); assay type: functional, cell-based
BJ [8] = experiment: BJ-TERT fibroblast viability loss – cell-based, RAS-independent, luminescence, dose response (AID 1933); assay type: functional; conditions: Homo sapiens
BJ [9] = experiment: growth inhibition of engineered Ras-driven BJ cells – cell-based, alamar blue fluorescence, cherrypicked samples, dose response (AID 2631); assay type: functional; conditions: Homo sapiens;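 further: confirmatory dose-response assay in RAS-dependent BJ fibroblasts engineered with TERT, LT and ST, with cytotoxicity read by fluorescence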
[10] = biological target: T1, Heat shock protein HSP 90-alpha (Homo sapiens, UniProt P07900); assay type: functional, organism-based
[11] = reduction of Shn3 3'UTR-driven luciferase in osteoblasts – cell-based, Clone20 osteoblasts, firefly luciferase, cherry-picked, dose response (AID 624132); assay type: functional;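 further: firefly luciferase luminescence from reporter carrying the Shn3 3'UTR in osteoblasts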
[12] = biological target: T1, Heat shock protein HSP 90-alpha; experiment: Luminescence-based dose response biochemical high throughput screening assay for inhibitors of the Heat Shock Protein 90 (HSP90). [Related pubchem assays: 1831 (Summary AID.), 1846 (Confirmation screen.), 1789 (Primary screen.)]
[13] = Shn3 3'UTR reporter signal decrease – cell-based, Clone20 osteoblasts, firefly luciferase, cherry-pick, set 2, Schnurri-3 inhibitor project, dose response (AID 720490); assay type: functional;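 further: actives lower the luminescence signal as inhibitors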
[14] = luciferase reporter signal reduction – luminescence, H4-C neuroglioblastoma cells, dose response (AID 2458); assay type: functional, cell-based;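 further: H4 neuroglioblastoma cells stably carrying a luciferase reporter gene fusion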
[15] = blockers of HIV-1 ZM109 envelope-driven cell-cell fusion – HeLa effector, CEM target cells, luciferase, cherry-pick, dose response (AID 652058); assay type: functional, cell-based;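 further: luciferase signal from HIV-1 Env mediated cell-cell fusion of effector and target cells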
[16] = blockers of bursicon-stimulated LGR2 cAMP reporter – cell-based, HEK293, CRE-luciferase reporter, cherry pick, set 2, dose response (AID 743343); assay type: functional;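 further: transfected cells were stimulated with diluted bursicon conditioned medium after compound addition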
[17] = HEK-293T viability loss, compound-treated – cell-based, uHTS hits, cytotoxicity control for B/T-cell NF-kB inhibitor project, dose response (AID 489019); assay type: functional;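 further: IC50 reflects cytotoxicity as loss of cell viability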
[18] = blockers of HIV-1 envelope-mediated cell-cell fusion – cherry-pick, dose response (AID 652057); assay type: functional, cell-based
[19] = alpha-synuclein stem-loop translation blockers – luminescence, H4 neuroglioblastoma cells, dose confirmation, confirmation (AID 2454); assay type: functional, cell-based;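 further: H4 neuroglioblastoma cells carrying an alpha-synuclein 5'UTR luciferase reporter; potency for inhibition of the luciferase signal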
Jurkat = experiment: blockers of NF-kB activation in T cells – Jurkat, luciferase reporter, luminescence, B- and T-cell, dose response (AID 489004); assay type: functional, cell-based; conditions: Homo sapiens;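 further: NF-kB luciferase reporter Jurkat cells stimulated with PMA plus ionomycin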
[20] = EF1alpha-driven Renilla reporter with control 3'UTR suppression – Clone20-Shn3RL cells, dual-Glo, cherry-pick, set 2, counter-screen for Shn3 3'UTR targeting project, dose response (AID 720724); assay type: functional, cell-based; conditions: Dual-Go Shn3RL
[21] = blockade of melanocortin 4 receptor signaling – cell-based, plate reader, cherry pick, counter-screen for LGR2 antagonist project, dose response (AID 743444); assay type: functional;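 further: transfected HEK 293 cells stimulated with alpha-MSH peptide; potency of inhibitors of the alpha-MSH evoked signal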
[22] = biological target: Luciferin 4-monooxygenase (Photuris pensylvanica, UniProt Q27757); experiment: inhibition of Cell Titer Glo luciferase signal – biochemical, luminescence, cherry-picks, counter-screen for HSF-1 reporter inhibitor project, dose response (AID 588847)
cells = assay type: functional, cell-based
[23] = biological target: T2, Heat shock factor protein 1 (Mus musculus, UniProt P38532); experiment: decrease of HSF1-responsive luciferase luminescence – cell-based, NIH3T3, dose retest, confirmation (AID 2382); assay type: functional;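 further: NIH3T3 fibroblasts with HSF1-driven luciferase reporter stressed by proteasome inhibitor MG132; luminescence from HSF1-driven luciferase expression after 8 hours of MG132 stress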
T2 sequence (P38532 whole entry): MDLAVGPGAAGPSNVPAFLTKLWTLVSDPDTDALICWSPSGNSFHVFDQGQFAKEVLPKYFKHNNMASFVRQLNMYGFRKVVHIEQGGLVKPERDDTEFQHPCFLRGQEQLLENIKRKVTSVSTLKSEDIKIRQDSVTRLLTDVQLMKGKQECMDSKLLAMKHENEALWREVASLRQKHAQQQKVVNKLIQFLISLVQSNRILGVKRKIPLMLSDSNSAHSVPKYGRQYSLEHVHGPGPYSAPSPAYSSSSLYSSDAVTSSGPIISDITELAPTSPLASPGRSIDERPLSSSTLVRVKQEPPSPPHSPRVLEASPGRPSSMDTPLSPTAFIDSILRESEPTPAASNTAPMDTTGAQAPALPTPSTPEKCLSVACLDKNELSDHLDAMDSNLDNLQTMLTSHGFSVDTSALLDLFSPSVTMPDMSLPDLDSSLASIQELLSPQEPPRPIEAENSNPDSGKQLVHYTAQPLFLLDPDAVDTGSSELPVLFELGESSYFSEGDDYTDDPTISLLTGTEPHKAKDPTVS

[24] = off-target signal loss in HeLa-CEM21 co-culture – HeLa F-luc CTL cells, cherry-picked, counter-screen for HIV-1 Env fusion inhibitor project, dose response (AID 652040); assay type: functional, cell-based;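 further: potency for signal decrease marking cytotoxic or nonspecific inhibition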
[25] = HIV-1 AD8 envelope cell-cell fusion blockers – cherry-pick, dose response (AID 652062); assay type: functional, cell-based;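 further: luciferase signal from cell-cell fusion driven by HIV-1 clade B AD8 Env; potency is for inhibitors of fusion seen as a drop in luminescence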
[26] = biological target: Protein-tyrosine kinase 2-beta (Homo sapiens, UniProt Q14289);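 further: potency of inhibitors of PYK2 kinase phosphorylation of poly-GT substrate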
[27] = test system: Streptococcus sp. 'group A'; experiment: Streptococcus pyogenes SK(-)GAS viability under kanamycin – luminescence, BacTiterGlo, confirmation, counter-screen for streptokinase expression inhibitor project, dose response (AID 1900); assay type: functional, organism-based
Streptokinase A = biological target: T3, Streptokinase A (Streptococcus pyogenes serotype M1, UniProt P10520); experiment: viability-normalized secreted streptokinase activity reduction – plasminogen activation absorbance, OD405, dose response (AID 1914); assay type: functional, Streptococcus pyogenes M1 GAS;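 further: secreted streptokinase activity via plasminogen activation per viability signal from cell pellet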
T3 sequence (P10520 whole entry): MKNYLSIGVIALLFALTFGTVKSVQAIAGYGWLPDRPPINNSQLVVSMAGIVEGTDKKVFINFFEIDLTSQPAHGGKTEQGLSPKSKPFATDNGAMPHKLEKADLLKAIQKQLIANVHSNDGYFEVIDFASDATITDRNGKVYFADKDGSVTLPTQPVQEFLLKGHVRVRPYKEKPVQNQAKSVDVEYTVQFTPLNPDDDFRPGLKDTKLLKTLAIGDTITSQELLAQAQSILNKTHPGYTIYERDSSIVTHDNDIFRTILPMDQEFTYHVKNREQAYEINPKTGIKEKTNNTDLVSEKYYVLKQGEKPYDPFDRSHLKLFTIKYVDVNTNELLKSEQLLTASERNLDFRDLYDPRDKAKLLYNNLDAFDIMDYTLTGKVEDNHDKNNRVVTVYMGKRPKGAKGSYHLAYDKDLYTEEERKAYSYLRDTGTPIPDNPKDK

[28] = NIH3T3 cell viability loss – ATP luminescence, mouse fibroblasts, counter-screen, dose response (AID 2010); assay type: functional, cell-based;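 further: cells exposed to compound for about 90 hours before reading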
[29] = biological target: Serine/threonine-protein phosphatase (Homo sapiens, UniProt Q9BPW0); experiment: inhibition of protein phosphatase 5 activity – biochemical, fluorescence, dose response (AID 2395)
[30] = mitochondrial function rescue without frataxin homolog – Friedreich's ataxia, plus single-dose screen, dose response (AID 1465); assay type: functional;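 further: yeast depleted of Yfh1p frataxin homolog grown on glycerol needing respiration; WST-1 tetrazolium dye reduction as measure of cellular dehydrogenase metabolic activity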
[31] = biological target: T4, Apoptotic protease-activating factor 1 (Homo sapiens, UniProt O14727); assay type: functional
T4 sequence (O14727 whole entry): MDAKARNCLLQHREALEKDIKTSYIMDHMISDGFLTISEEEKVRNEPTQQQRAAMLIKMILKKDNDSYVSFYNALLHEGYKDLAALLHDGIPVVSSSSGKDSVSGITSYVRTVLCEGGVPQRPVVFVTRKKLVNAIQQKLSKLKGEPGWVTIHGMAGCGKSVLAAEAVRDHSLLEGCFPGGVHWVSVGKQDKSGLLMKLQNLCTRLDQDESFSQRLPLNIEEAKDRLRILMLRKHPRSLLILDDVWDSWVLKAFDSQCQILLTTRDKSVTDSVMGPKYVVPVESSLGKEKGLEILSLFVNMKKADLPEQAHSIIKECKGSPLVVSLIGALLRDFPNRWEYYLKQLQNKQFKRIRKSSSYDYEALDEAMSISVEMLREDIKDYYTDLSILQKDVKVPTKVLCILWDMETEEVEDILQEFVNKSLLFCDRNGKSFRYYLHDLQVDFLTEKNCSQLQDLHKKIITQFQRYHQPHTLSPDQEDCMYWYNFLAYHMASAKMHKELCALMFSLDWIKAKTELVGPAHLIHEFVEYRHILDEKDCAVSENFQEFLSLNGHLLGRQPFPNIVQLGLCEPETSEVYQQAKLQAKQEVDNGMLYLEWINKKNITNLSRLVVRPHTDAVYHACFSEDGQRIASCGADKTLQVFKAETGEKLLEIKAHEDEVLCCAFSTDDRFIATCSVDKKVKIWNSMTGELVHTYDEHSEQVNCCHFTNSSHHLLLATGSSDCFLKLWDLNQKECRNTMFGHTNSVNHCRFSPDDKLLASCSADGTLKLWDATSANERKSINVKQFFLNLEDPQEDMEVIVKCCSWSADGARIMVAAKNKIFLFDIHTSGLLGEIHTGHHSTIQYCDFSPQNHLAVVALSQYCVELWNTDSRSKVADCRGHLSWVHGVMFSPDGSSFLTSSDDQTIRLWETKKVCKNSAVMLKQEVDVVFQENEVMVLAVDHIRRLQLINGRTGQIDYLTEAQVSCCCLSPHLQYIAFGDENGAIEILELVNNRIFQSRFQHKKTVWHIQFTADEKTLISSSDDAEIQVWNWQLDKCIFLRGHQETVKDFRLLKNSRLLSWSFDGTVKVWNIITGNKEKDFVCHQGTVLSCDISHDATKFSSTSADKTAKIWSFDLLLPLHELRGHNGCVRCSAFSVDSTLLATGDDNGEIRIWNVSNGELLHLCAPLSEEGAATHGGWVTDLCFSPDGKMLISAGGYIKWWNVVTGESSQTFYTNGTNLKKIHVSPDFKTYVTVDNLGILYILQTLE

INS1 = experiment: INS-1E survival protection against cytokine death – cell-based, luminescence, retest, dose response (AID 449756); assay type: functional; conditions: Rattus norvegicus;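 further: cell death triggered by IL-1 beta plus TNF-alpha plus IFN-gamma mixture; protective hits raise ATP signal compared with cytokine alone wells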
Streptococcus = experiment: GAS UMAA2166 growth inhibition – luminescence, BacTiterGlo, counter-screen for streptokinase expression inhibitor project, dose response (AID 1915); assay type: functional, organism-based;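 further: potency for reduction of bacterial viability or growth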
[32] = biological target: Serine/threonine-protein phosphatase PP1-alpha catalytic subunit (Homo sapiens, UniProt P62136); experiment: inhibition of protein phosphatase 1 activity – biochemical, fluorescence, dose response (AID 2394)
[33] = Trypanosoma cruzi growth suppression in host cells – NIH3T3 host cells, beta-gal luminescence, confirmation (AID 2044); assay type: functional, cell-based;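 further: intracellular parasites grown in NIH/3T3 mouse fibroblasts as host cells; luminescent beta-galactosidase reporter signal from transgenic T. cruzi replicating inside host cells; inhibitors lower the luminescence signal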
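Wherever CC50 is given: cells exposed to compound for 16 hours before readout.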

Sequence of Luciferin 4-monooxygenase (Q27757 whole entry): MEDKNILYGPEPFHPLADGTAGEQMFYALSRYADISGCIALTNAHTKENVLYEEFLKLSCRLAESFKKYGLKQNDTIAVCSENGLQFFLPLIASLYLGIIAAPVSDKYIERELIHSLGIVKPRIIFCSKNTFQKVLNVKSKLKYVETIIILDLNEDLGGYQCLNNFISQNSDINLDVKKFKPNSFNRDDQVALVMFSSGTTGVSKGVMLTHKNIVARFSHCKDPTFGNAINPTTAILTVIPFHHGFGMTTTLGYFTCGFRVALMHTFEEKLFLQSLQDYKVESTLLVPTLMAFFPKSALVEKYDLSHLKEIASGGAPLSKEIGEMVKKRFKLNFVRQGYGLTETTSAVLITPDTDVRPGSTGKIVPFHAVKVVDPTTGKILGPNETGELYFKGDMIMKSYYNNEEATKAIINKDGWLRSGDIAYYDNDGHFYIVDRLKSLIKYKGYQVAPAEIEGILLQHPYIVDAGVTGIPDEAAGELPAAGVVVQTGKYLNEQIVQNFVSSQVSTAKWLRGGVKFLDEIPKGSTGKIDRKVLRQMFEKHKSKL
Sequence of Serine/threonine-protein phosphatase (Q9BPW0 whole entry): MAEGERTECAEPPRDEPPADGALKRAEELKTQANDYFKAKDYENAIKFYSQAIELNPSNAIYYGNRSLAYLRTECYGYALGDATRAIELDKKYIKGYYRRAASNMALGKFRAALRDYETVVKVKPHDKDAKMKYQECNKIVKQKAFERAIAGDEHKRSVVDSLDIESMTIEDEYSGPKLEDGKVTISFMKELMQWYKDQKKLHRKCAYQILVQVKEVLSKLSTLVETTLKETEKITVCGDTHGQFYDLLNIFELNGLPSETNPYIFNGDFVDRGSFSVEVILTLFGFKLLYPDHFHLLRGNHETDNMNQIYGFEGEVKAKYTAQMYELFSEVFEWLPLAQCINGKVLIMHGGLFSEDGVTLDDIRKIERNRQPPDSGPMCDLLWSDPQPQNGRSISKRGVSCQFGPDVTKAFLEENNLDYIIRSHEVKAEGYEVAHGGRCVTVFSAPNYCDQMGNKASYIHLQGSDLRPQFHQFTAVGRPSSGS
Sequence of G-protein coupled receptor 55 (Q9Y2T6 whole entry): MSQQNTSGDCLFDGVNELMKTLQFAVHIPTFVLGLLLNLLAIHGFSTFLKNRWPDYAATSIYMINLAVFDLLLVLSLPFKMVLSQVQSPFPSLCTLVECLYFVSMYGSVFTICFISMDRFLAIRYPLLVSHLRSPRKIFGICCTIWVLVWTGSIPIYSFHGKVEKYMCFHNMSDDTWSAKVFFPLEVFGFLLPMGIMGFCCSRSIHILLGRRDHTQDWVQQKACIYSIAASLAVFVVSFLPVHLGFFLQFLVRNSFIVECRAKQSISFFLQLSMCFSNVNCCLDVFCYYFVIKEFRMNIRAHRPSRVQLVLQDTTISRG
Sequence of Protein-tyrosine kinase 2-beta (Q14289 whole entry): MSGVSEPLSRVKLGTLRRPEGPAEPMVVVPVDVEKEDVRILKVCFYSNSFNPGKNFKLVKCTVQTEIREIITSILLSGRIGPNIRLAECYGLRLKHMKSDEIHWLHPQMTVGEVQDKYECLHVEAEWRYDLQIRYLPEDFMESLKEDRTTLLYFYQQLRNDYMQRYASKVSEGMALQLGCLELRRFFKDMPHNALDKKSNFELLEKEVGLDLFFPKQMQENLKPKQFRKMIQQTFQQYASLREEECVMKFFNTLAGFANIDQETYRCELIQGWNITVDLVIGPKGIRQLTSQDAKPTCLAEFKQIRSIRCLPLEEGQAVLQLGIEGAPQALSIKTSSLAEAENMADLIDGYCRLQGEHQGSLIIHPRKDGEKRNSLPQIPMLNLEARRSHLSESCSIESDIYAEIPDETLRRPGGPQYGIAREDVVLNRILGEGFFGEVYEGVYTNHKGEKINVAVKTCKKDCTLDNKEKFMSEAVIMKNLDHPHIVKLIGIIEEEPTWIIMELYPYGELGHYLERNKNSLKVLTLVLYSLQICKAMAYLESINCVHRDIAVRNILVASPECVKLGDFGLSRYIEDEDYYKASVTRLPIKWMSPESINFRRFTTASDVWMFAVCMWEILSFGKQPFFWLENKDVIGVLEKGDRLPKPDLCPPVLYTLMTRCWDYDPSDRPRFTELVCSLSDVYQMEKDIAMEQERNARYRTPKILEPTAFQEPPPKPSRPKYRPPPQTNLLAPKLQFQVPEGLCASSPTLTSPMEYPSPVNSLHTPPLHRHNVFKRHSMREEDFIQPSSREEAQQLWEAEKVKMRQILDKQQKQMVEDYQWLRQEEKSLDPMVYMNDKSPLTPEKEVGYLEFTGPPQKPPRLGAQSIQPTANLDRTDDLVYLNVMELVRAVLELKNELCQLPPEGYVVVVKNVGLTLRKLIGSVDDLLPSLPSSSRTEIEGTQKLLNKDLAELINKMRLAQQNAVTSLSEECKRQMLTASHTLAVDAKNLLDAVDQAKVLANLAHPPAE
Sequence of Serine/threonine-protein phosphatase PP1-alpha catalytic subunit (P62136 whole entry): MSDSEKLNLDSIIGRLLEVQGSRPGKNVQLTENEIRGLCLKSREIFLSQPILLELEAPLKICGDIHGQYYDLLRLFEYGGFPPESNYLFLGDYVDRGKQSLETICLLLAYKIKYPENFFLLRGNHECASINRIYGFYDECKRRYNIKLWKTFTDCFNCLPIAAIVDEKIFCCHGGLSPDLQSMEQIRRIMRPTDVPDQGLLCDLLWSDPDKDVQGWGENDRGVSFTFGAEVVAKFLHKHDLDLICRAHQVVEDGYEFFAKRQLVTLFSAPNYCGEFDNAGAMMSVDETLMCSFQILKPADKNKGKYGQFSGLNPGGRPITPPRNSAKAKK

CCOC(=O)/C(=C\c1cccnc1)C(=O)c1cc(C(C)=O)c(Nc2ccccc2)s1
inconclusive: EC50 (BJ [1]) 6680 nM | EC50 (BJ [5]) 7780 nM | EC50 (BJ [8]) 2380 nM
> 120000 nM (not active): EC50 [7]
active: EC50 [2] 2340 nM | IC50 [3] 3090 nM | CC50 (HeLa) 2910 nM | EC50 [4] 8020 nM | EC50 [6] 8030 nM | EC50 (BJ [9]) 503 nM | AC50 [10] 2180 nM

O=C(CN1C(=O)c2ccccc2S1(=O)=O)c1ccc2c(c1)OCCCO2
active: AC50 [11] 262 nM | IC50 [12] 816 nM | AC50 [13] 631 nM | EC50 [4] < 100 nM | EC50 [14] 15 nM | AC50 [15] 725 nM | AC50 [16] < 68 nM | AC50 [18] < 260 nM | EC50 [19] 16 nM | IC50 (Jurkat) < 160 nM | EC50 [6] < 100 nM | EC50 [7] < 100 nM | AC50 [20] 50300 nM | AC50 [21] 69.5 nM | EC50 (cells) 21 nM | EC50 [23] < 160 nM | AC50 [24] < 260 nM | AC50 [25] < 260 nM
inactive: IC50 [17] > 80000 nM | AC50 [22] > 52000 nM

Cc1ccc(Cl)cc1NC1=C/C(=N\S(=O)(=O)c2cccs2)c2ccccc2C1=O
> 150000 nM (not active): EC50 (Streptokinase A)
38900 nM (not active): IC50 [32]
active: EC50 [27] 427 nM | EC50 [28] 3190 nM | IC50 [29] 2490 nM | EC50 [30] > 100000 nM | IC50 [31] 1850 nM | AC50 (INS1) 608 nM | EC50 (Streptococcus) 2980 nM | EC50 [33] 1600 nM
> 69500 nM (not active): IC50 [26]
